For orientation: pEC50 means the negative decadic logarithm of the EC50, by convention in mol/L. High values mean a small EC50, low ones a large EC50. In general, EC50 refers to the concentration that produces a half-maximal response. A high value points to weaker potency.

The target of one experiment is T1, BRD3 (Homo sapiens, UniProt Q15059).
T1 construct: endogenous full-length protein in THP-1 cells or lysate, identified by mass spectrometry
Briefly: 2D thermal proteome profiling (TMT mass spectrometry). The class given is cell-based. The conditions noted are these: intact THP-1 cells, […] min, […] °C; stabilization.

Another experiment concerns the target T2, NUDT1 (Homo sapiens, UniProt P36639).
T2 construct: endogenous protein in THP-1 cells, identified by mass spectrometry
Described as above. The conditions noted are these: intact THP-1 cells, […] min, […] °C; stabilization. The class given is cell-based.

The target in experiment [1] is T3, FYTTD1 (Homo sapiens, UniProt Q96QD9).
T3 sequence (Q96QD9 1-318): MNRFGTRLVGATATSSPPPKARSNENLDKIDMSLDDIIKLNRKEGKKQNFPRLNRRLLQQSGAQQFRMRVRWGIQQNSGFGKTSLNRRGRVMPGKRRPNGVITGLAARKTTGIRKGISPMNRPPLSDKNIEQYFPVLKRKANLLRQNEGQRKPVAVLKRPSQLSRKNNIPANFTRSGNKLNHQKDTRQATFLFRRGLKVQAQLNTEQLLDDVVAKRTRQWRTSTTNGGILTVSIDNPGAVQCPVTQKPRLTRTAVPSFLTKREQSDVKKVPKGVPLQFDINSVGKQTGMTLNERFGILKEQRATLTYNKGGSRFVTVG
Briefly: thermal shift of spiked recombinant protein, mass spectrometry read-out. It counts as binding. Also on record: commercial recombinant protein (Abcam ab164533). The conditions noted are these: […] JQ1, […] protein in background of recombinant protein domains, […] HEPES pH […] NaCl, […] glycerol, […] Tween20; destabilization.

The target in experiment [2] is T3, FYTTD1. Briefly: 2D thermal proteome profiling (TMT mass spectrometry). The class given is cell-based. Also on record: endogenous protein in THP-1 cells, identified by mass spectrometry. The conditions noted are these: intact THP-1 cells, […] min, […] °C; destabilization; text value approximate. The text has this:
2D thermal proteome profiling (TMT mass spectrometry) on FYTTD1 | JQ1 further caused dose-dependent destabilization of FYTTD1

Another experiment addresses T4, SOAT1 (Homo sapiens, UniProt P35610).
T4 construct: endogenous full-length protein in THP-1 cells, identified by mass spectrometry
T4 sequence (P35610 1-550): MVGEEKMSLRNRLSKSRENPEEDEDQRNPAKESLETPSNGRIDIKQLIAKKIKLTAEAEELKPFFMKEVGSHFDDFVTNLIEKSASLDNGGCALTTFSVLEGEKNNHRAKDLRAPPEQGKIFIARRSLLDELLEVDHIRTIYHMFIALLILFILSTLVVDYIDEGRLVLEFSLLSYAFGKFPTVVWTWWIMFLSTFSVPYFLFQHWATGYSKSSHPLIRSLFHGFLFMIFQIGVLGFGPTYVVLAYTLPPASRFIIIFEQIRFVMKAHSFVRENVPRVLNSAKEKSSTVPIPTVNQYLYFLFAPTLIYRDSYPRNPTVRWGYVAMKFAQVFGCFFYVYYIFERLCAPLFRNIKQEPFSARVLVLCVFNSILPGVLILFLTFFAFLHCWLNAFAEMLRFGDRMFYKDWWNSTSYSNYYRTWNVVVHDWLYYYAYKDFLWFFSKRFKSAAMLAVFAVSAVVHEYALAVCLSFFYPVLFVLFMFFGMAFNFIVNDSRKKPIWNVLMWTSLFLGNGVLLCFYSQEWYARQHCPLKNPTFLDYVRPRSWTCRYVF
The experiment is described as above. The class given is cell-based. The conditions noted are these: intact THP-1 cells, […] min, […] °C; stabilization; text value approximate. The text has this:
2D thermal proteome profiling (TMT mass spectrometry) on SOAT1 | stabilized SOAT1 and several members of the sterol biosynthesis pathway

T1 sequence (Q15059 2-726): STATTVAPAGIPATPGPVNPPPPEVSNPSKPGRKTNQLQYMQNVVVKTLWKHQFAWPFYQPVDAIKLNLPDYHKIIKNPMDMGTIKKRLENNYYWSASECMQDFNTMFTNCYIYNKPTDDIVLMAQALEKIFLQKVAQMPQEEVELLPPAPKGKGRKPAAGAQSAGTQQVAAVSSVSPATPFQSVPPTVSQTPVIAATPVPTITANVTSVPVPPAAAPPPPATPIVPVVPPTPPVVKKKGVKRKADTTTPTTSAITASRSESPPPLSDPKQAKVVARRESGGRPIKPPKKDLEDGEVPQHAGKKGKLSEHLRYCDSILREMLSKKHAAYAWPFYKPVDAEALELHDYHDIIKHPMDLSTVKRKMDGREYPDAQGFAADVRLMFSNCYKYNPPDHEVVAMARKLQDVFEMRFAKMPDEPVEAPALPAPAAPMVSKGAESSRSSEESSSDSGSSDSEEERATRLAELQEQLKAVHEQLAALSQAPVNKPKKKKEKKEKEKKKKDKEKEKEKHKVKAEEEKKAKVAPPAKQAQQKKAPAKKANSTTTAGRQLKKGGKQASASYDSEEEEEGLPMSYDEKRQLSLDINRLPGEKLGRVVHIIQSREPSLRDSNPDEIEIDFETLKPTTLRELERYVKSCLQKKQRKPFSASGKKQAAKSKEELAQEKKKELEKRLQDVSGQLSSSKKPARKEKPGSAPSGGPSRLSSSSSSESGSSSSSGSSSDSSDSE

Consider `COc1cc2c(cc1-c1c(C)noc1C)ncc1[nH]c(=O)n([C@H](C)c3ccccn3)c12` [I-BET151, 7-(3,5-dimethylisoxazol-4-yl)-8-methoxy-1-((R)-1-(pyridin-2-yl)ethyl)-1H-imidazo[4,5-c]quinolin-2(3H)-one], for which the pEC50 on BRD3 is reported as 5.9; on NUDT1 it was 5.3.

`Cc1sc2c(c1C)C(c1ccc(Cl)cc1)=N[C@@H](CC(=O)OC(C)(C)C)c1nnc(C)n1-2` [JQ1]: the thermal shift result at FYTTD1 [1] is “Thermal shift assays with recombinantly expressed FYTTD1 confirmed destabilization by JQ1 binding”. For the same molecule, the EC50 at FYTTD1 [2] and at SOAT1 was roughly 1 µM in each case.

The values above are taken from article PMC5871718 (Cell, 2018).
